Tests used:
Test in all cases: -log10 GI50 (growth inhibition 50%) (-log10(M)); higher = more potent growth inhibition
[1] = system: SUM149PT
In short: (§1)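 A value carrying a < qualifier equals the top dose tested. Each compound was tested in triplicate on breast cancer cell lines for 72 hours at nine doses in 1:5 serial dilution, using a luminescence read-out against a time-zero plate. Nonlinear least squares fitting of a Gompertz curve gave GI50, the molar concentration causing the set level of growth inhibition, which is reported as its negative logarithm. The logarithm is base 10.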

[2] = system: MCF10A
In short: as §1

[3] = system: MDAMB175VII
In short: as §1

[4] = system: BT20
In short: as §1

[5] = system: HCC70
In short: as §1

[6] = system: BT549
In short: as §1

[7] = system: HCC1187
In short: as §1

[8] = system: MCF12A
In short: as §1

[9] = system: MDAMB361
In short: as §1

[10] = system: HCC3153
In short: as §1

[11] = system: MDAMB157
In short: as §1

[12] = system: UACC812
In short: as §1

[13] = system: HCC2185
In short: as §1

[14] = system: SUM1315MO2
In short: as §1

[15] = system: MCF10F
In short: as §1

[16] = system: 184A1
In short: as §1

[17] = system: MDAMB231
In short: as §1

[18] = system: HCC1806
In short: as §1

[19] = system: MDAMB415
In short: as §1

[20] = system: HCC1143
In short: as §1

[21] = system: MDAMB453
In short: as §1

[22] = system: T47D
In short: as §1

[23] = system: HCC1569
In short: as §1

[24] = system: SKBR3
In short: as §1

[25] = system: ZR75B
In short: as §1

[26] = system: SUM159PT
In short: as §1

[27] = system: HCC1428
In short: as §1

[28] = system: HCC38
In short: as §1

[29] = system: ZR751
In short: as §1

[30] = system: 184B5
In short: as §1

[31] = system: T47D_KBluc
In short: as §1

[32] = system: SUM229PE
In short: as §1

[33] = system: HCC1954
In short: as §1

[34] = system: SUM225CWN
In short: as §1

[35] = system: BT474
In short: as §1

[36] = system: MCF7
In short: as §1

[37] = system: HCC1937
In short: as §1

[38] = system: MDAMB134VI
In short: as §1

[39] = system: AU565
In short: as §1

[40] = system: CAMA1
In short: as §1

[41] = system: SUM52PE
In short: as §1

[42] = system: BT483
In short: as §1

[43] = system: SUM185PE
In short: as §1

[44] = system: HS578T
In short: as §1

[45] = system: HCC1419
In short: as §1

[46] = system: HCC1395
In short: as §1

[47] = system: MX1
In short: as §1

[48] = system: LY2
In short: as §1

[49] = system: 600MPE
In short: as §1

[50] = system: HBL100
In short: as §1

[51] = system: HCC202
In short: as §1

COc1cccc(-c2cc(=O)c3ccccc3o2)c1N
-log10 GI50 [1]: 4.66 | -log10 GI50 [2]: < 4.3 | -log10 GI50 [3]: 4.85 | -log10 GI50 [4]: 4.45 | -log10 GI50 [5]: < 4.3 | -log10 GI50 [6]: 4.36 | -log10 GI50 [7]: 5.39 | -log10 GI50 [8]: < 4.3 | -log10 GI50 [9]: 4.3 | -log10 GI50 [10]: 4.1 | -log10 GI50 [11]: < 4.3 | -log10 GI50 [12]: 4.65 | -log10 GI50 [13]: 5.06 | -log10 GI50 [14]: < 4.3 | -log10 GI50 [15]: < 4.3 | -log10 GI50 [16]: < 4.3 | -log10 GI50 [17]: < 4.3 | -log10 GI50 [18]: < 4.3 | -log10 GI50 [19]: 4.6 | -log10 GI50 [20]: < 4 | -log10 GI50 [21]: < 4.3 | -log10 GI50 [22]: < 4.3 | -log10 GI50 [23]: < 4.3 | -log10 GI50 [24]: 4.73 | -log10 GI50 [25]: 4.59 | -log10 GI50 [26]: 4.03 | -log10 GI50 [27]: < 4 | -log10 GI50 [28]: 4.29 | -log10 GI50 [29]: < 4.3 | -log10 GI50 [30]: < 4.3 | -log10 GI50 [31]: < 4.3 | -log10 GI50 [32]: < 4.3 | -log10 GI50 [33]: < 4.3 | -log10 GI50 [34]: 4.64 | -log10 GI50 [35]: 4.58 | -log10 GI50 [36]: < 4.3 | -log10 GI50 [37]: 4.5 | -log10 GI50 [38]: < 4 | -log10 GI50 [39]: 5.12 | -log10 GI50 [40]: 4.32 | -log10 GI50 [41]: 4.92 | -log10 GI50 [42]: 4.52 | -log10 GI50 [43]: 4.88 | -log10 GI50 [44]: < 4.3 | -log10 GI50 [45]: < 4 | -log10 GI50 [46]: < 4 | -log10 GI50 [47]: 4.39 | -log10 GI50 [48]: < 4.3 | -log10 GI50 [49]: < 4.3

Nc1[nH]nc2nnc(-c3c(-c4ccccc4)nn4ccccc34)cc12
-log10 GI50 [1]: 4.73 | -log10 GI50 [2]: < 4.48 | -log10 GI50 [3]: 5.08 | -log10 GI50 [4]: 4.55 | -log10 GI50 [5]: 4.54 | -log10 GI50 [6]: < 4 | -log10 GI50 [7]: 4.7 | -log10 GI50 [8]: < 4 | -log10 GI50 [9]: 4.67 | -log10 GI50 [10]: < 4.48 | -log10 GI50 [11]: < 4 | -log10 GI50 [12]: 4.56 | -log10 GI50 [13]: < 4 | -log10 GI50 [14]: 4.71 | -log10 GI50 [15]: 4.09 | -log10 GI50 [16]: 4.61 | -log10 GI50 [19]: < 4 | -log10 GI50 [20]: 4.6 | -log10 GI50 [21]: < 4 | -log10 GI50 [22]: < 4.48 | -log10 GI50 [23]: < 4 | -log10 GI50 [24]: < 4 | -log10 GI50 [25]: 4.56 | -log10 GI50 [26]: < 4.48 | -log10 GI50 [27]: 4.56 | -log10 GI50 [28]: 4.24 | -log10 GI50 [29]: 5.23 | -log10 GI50 [30]: 4.89 | -log10 GI50 [31]: < 4 | -log10 GI50 [32]: < 4.48 | -log10 GI50 [33]: < 4.48 | -log10 GI50 [34]: 4.62 | -log10 GI50 [35]: 4.69 | -log10 GI50 [36]: < 4.48 | -log10 GI50 [37]: < 4 | -log10 GI50 [38]: < 4 | -log10 GI50 [39]: < 4.48 | -log10 GI50 [40]: < 4 | -log10 GI50 [41]: 4.49 | -log10 GI50 [42]: 4.45 | -log10 GI50 [43]: 4.43 | -log10 GI50 [44]: < 4.48 | -log10 GI50 [45]: 4.88 | -log10 GI50 [46]: 4.56 | -log10 GI50 [47]: < 4.48 | -log10 GI50 [49]: 4.65

Cc1ccc(C(=O)N(CCCN)[C@@H](c2nc3cc(Cl)ccc3c(=O)n2Cc2ccccc2)C(C)C)cc1 [Ispinesib]
-log10 GI50 [1]: 7.48 | -log10 GI50 [2]: 7.4 | -log10 GI50 [3]: 5.84 | -log10 GI50 [4]: 7.77 | -log10 GI50 [5]: 7.34 | -log10 GI50 [6]: 7.34 | -log10 GI50 [7]: 7.58 | -log10 GI50 [8]: 7.25 | -log10 GI50 [9]: 7.46 | -log10 GI50 [10]: 7.56 | -log10 GI50 [11]: 7.5 | -log10 GI50 [13]: 7.53 | -log10 GI50 [14]: 7.39 | -log10 GI50 [15]: 7.57 | -log10 GI50 [16]: 5.84 | -log10 GI50 [17]: 7.5 | -log10 GI50 [18]: 7.55 | -log10 GI50 [19]: 7.05 | -log10 GI50 [50]: 7.52 | -log10 GI50 [20]: 7.29 | -log10 GI50 [21]: 7.37 | -log10 GI50 [22]: 7.08 | -log10 GI50 [23]: 6.8 | -log10 GI50 [24]: 7.49 | -log10 GI50 [25]: 6.89 | -log10 GI50 [26]: 7.33 | -log10 GI50 [27]: 5.37 | -log10 GI50 [28]: 7.33 | -log10 GI50 [29]: 7.05 | -log10 GI50 [30]: 6.05 | -log10 GI50 [31]: 6.79 | -log10 GI50 [32]: 7.48 | -log10 GI50 [33]: 7.52 | -log10 GI50 [34]: 6.99 | -log10 GI50 [35]: 7.29 | -log10 GI50 [36]: 7.42 | -log10 GI50 [37]: 6.56 | -log10 GI50 [38]: 7.36 | -log10 GI50 [39]: 7.65 | -log10 GI50 [40]: 7.51 | -log10 GI50 [41]: 7.54 | -log10 GI50 [51]: 8.12 | -log10 GI50 [42]: 6.08 | -log10 GI50 [43]: 6.96 | -log10 GI50 [44]: 6.51 | -log10 GI50 [45]: 5.18 | -log10 GI50 [46]: 7.64 | -log10 GI50 [47]: 7.92 | -log10 GI50 [48]: 6.06 | -log10 GI50 [49]: 7.69

Cc1[nH]c2ccccc2c1CCNCc1ccc(/C=C/C(=O)NO)cc1 [LBH589]
-log10 GI50 [1]: 6.6 | -log10 GI50 [2]: 6.84 | -log10 GI50 [3]: 6.41 | -log10 GI50 [4]: 6.41 | -log10 GI50 [5]: 7.11 | -log10 GI50 [6]: 6.91 | -log10 GI50 [7]: 6.76 | -log10 GI50 [8]: 6.35 | -log10 GI50 [9]: 7.46 | -log10 GI50 [10]: 6.53 | -log10 GI50 [11]: 7.29 | -log10 GI50 [12]: 6.89 | -log10 GI50 [13]: 7.16 | -log10 GI50 [14]: 6.62 | -log10 GI50 [15]: 6.04 | -log10 GI50 [16]: 6.56 | -log10 GI50 [17]: 6.68 | -log10 GI50 [18]: 6.82 | -log10 GI50 [19]: 7.66 | -log10 GI50 [20]: 7.09 | -log10 GI50 [21]: 7.31 | -log10 GI50 [22]: 6.82 | -log10 GI50 [23]: 6.81 | -log10 GI50 [24]: 7.25 | -log10 GI50 [25]: 7.08 | -log10 GI50 [26]: 6.88 | -log10 GI50 [27]: 6.98 | -log10 GI50 [28]: 7.45 | -log10 GI50 [29]: 6.8 | -log10 GI50 [30]: 6.99 | -log10 GI50 [31]: 6.88 | -log10 GI50 [32]: 6.57 | -log10 GI50 [33]: 6.43 | -log10 GI50 [34]: 6.96 | -log10 GI50 [35]: 7.46 | -log10 GI50 [36]: 7.1 | -log10 GI50 [37]: 6.72 | -log10 GI50 [38]: 7.05 | -log10 GI50 [39]: 6.98 | -log10 GI50 [40]: 7.3 | -log10 GI50 [41]: 6.83 | -log10 GI50 [42]: 7.14 | -log10 GI50 [43]: 7.11 | -log10 GI50 [44]: 6.55 | -log10 GI50 [45]: 7.23 | -log10 GI50 [46]: 6.56 | -log10 GI50 [47]: 7.47 | -log10 GI50 [49]: 6.72
